Experimental data as given in BindingDB's records for doi:10.1021/jm058276a (Duquesne University, 2006).

Target: T1, Dihydrofolate reductase (Homo sapiens, UniProt P00374)
T1 sequence (P00374 whole entry): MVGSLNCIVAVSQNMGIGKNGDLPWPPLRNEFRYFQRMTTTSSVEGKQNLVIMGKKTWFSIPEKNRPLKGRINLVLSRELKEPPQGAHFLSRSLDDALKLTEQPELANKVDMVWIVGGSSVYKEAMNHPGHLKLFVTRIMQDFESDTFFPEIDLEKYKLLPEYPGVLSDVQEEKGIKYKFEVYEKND
Assay: Dihydrofolate Reductase (DHFR) Assay
Details: pH 7.4; 30 °C
Description: DHFRs were assayed spectrophotometrically in the reaction buffer solution containing dihydrofolate. The reaction was initiated with an amount of enzyme yielding a change in optical density at 340 nm of 0.015/min.

Row | Compound | IC50
1 | CCc1[nH]c2nc(N)nc(O)c2c1Sc1ccc([N+](=O)[O-])cc1 [2-amino-6-ethyl-5-[(4-nitrophenyl)sulfanyl]-3H,4H,7H-pyrrolo[2,3-d]pyrimidin-4-one] | > 29 µM
2 | CCc1[nH]c2nc(N)nc(O)c2c1Sc1cccc(Br)c1 [2-amino-5-[(3-bromophenyl)sulfanyl]-6-ethyl-3H,4H,7H-pyrrolo[2,3-d]pyrimidin-4-one] | > 27 µM
3 | CCc1[nH]c2nc(N)nc(O)c2c1Sc1ccc(F)cc1 [2-amino-6-ethyl-5-[(4-fluorophenyl)sulfanyl]-3H,4H,7H-pyrrolo[2,3-d]pyrimidin-4-one] | > 32 µM
4 | CCc1[nH]c2nc(N)nc(O)c2c1Sc1cccc(Cl)c1 [2-amino-5-[(3-chlorophenyl)sulfanyl]-6-ethyl-3H,4H,7H-pyrrolo[2,3-d]pyrimidin-4-one] | > 31 µM
5 | CCc1[nH]c2nc(N)nc(O)c2c1Sc1ccc(Br)cc1 [2-amino-5-[(4-bromophenyl)sulfanyl]-6-ethyl-3H,4H,7H-pyrrolo[2,3-d]pyrimidin-4-one] | > 26 µM

More lines, now with the values ahead:

Row | IC50 | Compound
6 | > 27 µM | CCc1[nH]c2nc(N)[nH]c(=O)c2c1Sc1ccc(Cl)c(Cl)c1 [2-amino-5-[(3,4-dichlorophenyl)sulfanyl]-6-ethyl-3H,4H,7H-pyrrolo[2,3-d]pyrimidin-4-one]
7 | > 24 µM | CCc1[nH]c2nc(N)[nH]c(=O)c2c1Sc1cc(C(F)(F)F)cc(C(F)(F)F)c1 [2-amino-5-{[3,5-bis(trifluoromethyl)phenyl]sulfanyl}-6-ethyl-3H,4H,7H-pyrrolo[2,3-d]pyrimidin-4-one]
8 | > 31 µM | CCc1[nH]c2nc(N)[nH]c(=O)c2c1Sc1c(C)cccc1C [2-amino-5-[(2,6-dimethylphenyl)sulfanyl]-6-ethyl-3H,4H,7H-pyrrolo[2,3-d]pyrimidin-4-one]
